Patent US10377731B2, “Compositions and methods for cancer treatment” (Boston Biomedical, Inc., priority 2007, dated 2019)
“Also recorded” adds a separate entry of the source.

Columns and labels:
[1] = system: Stat3; assay: Stat3 DNA binding assay (EMSA), HeLa nuclear extract; assay type: biochemical; settings: HeLa nuclear extract with constitutively activated Stat3
Protocol: STAT3 DNA Binding Assay: Electrophoretic mobility shift assay (EMSA) was performed as described by the manufacturer (Li-Cor Biosciences, Lincoln, Nebr.). Briefly, nuclear extracts were made from HeLa cells using the NucBuster Protein Extraction Kit as described by the manufacturer (EMD Biosciences, San Diego, Calif.). 5 μg of nuclear extract was pre-incubated with the indicated dose of indicated compound for 30 minutes prior to a 15-minute incubation with the IR700-labeled consensus Stat3 oligonucleotide. Samples were then electrophoresed on a polyacrylamide gel and directly scanned using the Odyssey infrared imaging system (Li-Cor Biosciences). For the enzyme-linked immunosorbent assay (ELISA), 5 μg of nuclear extract was preincubated with indicated concentration of indicated compound for 30 minutes prior to the addition of biotinylated oligo (5′-Biotin-[…]-3′ SEQ ID NO. 1). Stat3-DNA complexes were then captured on streptavidin coated 96 well plates (Pierce, Rockford, Ill.). Bound complexes were then incubated with Stat3 polyclonal antibody (Santa Cruz Biotechnology, Santa Cruz, Calif.) followed by anti-rabbit HRP conjugated secondary antibody (GE Healthcare, Pittsburgh, Pa.). Bound antibody was then visualized by addition of TMB substrate (Pierce) and absorbance measured at 450 nm.
Inhibition of Stat3 DNA-binding activity. Nuclear extracts from HeLa cells, which contain constitutively activated Stat3 as detected by phosphorylation at the tyrosine 705 residue, were used to perform Stat3 EMSAs to monitor Stat3 DNA binding activity. Nuclear extracts were incubated with indicated compound prior to incubation with IR700-labeled Stat3 consensus oligonucleotide. Binding of Stat3 to the oligonucleotide was monitored by gel electrophoresis and detection using a LiCor Odyssey infrared scanner.

[2] = system: Paca2 human pancreatic cancer cells; assay: Colony formation, Paca2 cells, single drugs and combinations; assay type: cell-based; settings: Homo sapiens, read-out: Compound 401 (% Inhibition)
Protocol: Paca2 human pancreatic cancer cells, A549 human lung cancer cells, and HepG2 human liver cancer cells (American Type Culture Collection) were cultured in Dulbecco's modified Eagle's medium containing 10% fetal bovine serum, 100 units/mL penicillin, 100 μg/mL streptomycin, and 2 mM L-glutamine. […] Erlotinib was from American Custom Chemicals (San Diego, Calif.). Gemcitabine was from Eli Lilly (Indianapolis, Ind.) in an aqueous 20 mM stock solution. Sorafenib was Mass.). Unless otherwise noted all compounds were solubilized in DMSO at 10 mM and aliquoted at −20° C. Exponentially growing Paca2 pancreatic cancer cells were seeded at 1,000 cells per well in 6-well plates and allowed to attach for 24 hours. Increasing concentrations of individual drugs and those in combination were then added to the media for another 24 hours. After 24 hours exposure, the drug was removed and fresh media was added for the next 10-14 days, allowing for colony formation. Cells were fixed and stained with GIEMSA (Gibco BRL). […] Results are an average of duplicate experiments. Alternatively, MTT assays were performed 72 hours post-treatment in A549 and HepG2 cells.

[3] = system: CD133+ cells; assay: Cleaved-Caspase 3 staining of CD133+ cells; assay type: cell-based; settings: CD133+ cells enriched with antibody magnetic beads
Source text: CSC isolation with surface markers: Sorting tumor cells based primarily upon the differential expression of the surface marker(s), such as CD44 or CD133, have accounted for the majority of the highly tumorigenic CSCs described to date. CD133 isolation is based upon the method of Ricci-Vitiani et al., with slight modification. CD133^+ cells were isolated by either fluorescence activated cell sorting (FACS) or magnetic nanoparticle-based separation. Briefly, 10^7 cells/mL were labeled with CD133/1 (AC133)-PE for FACS-based cell sorting; or with CD133/1 (AC133)-biotin (Miltenyi Biotec, Auburn, Calif.) for magnetic field-based separation using the EasySep® biotin selection kit (Miltenyi Biotec) according to the manufacturer's recommendations. Non-specific labeling was blocked with the supplied FcR blocking reagent and antibody incubations (1:11) were carried out on ice for 15 minutes in PBS with 2% FBS and 1 mM EDTA. Five washes were done for EasySep® isolation, whereas cells were pelleted at 400×g for 5 minutes and resuspended at 2×10^7/mL, before sorting by FACS.
Immunofluorescence: Cells treated with indicated compound for an indicated time were either fixed in 4% formaldehyde or cold methanol for the detection of Annexin V, cleaved caspase 3, or stat3, respectively. Coverslips were air dried and rehydrated in PBS at room temperature for 10 min. […]

[4] = system: CD44high CSCs (FaDu); assay: Sphere assay (CSC spherogenesis); assay type: cell-based, human; settings: FACS-isolated CD44high CSCs grown as spheres for 72 hours before challenge
Protocol: CD44^high cells were isolated by FACS according to the methods described in Ponti et al, with slight modification. Briefly, after trypsinization and recovery of cells for 30 minutes at 37° C. in growth media, cells were pelleted at 400×g and were resuspended in PBS with 2% FBS and 1 mM EDTA at 1×10^6 cells/mL. Cells were then incubated on ice with a 1:100 dilution of CD44-FITC (BD Biosicences, San Diego, Calif.) for 15 minutes. Alternatively, CD24-PE (BD Bioscences, San Diego, Calif.) (1:100) was utilized for negative selection. After washing three times, cells were resuspended at 2×10^6/mL and passed through a […] mesh before sorting
Sphere assay: A reliable method of measuring the self-renewal capacity of cell population if the ability to be cultured as spheres in the absence of serum or attachment. CD44^high FaDu or Hoechst side population cancer stem cells were cultured in ultra low attachment plates in cancer stem cell media (DMEM/F12, B27 Neurobasal supplement, 20 ng/ml EGF, 10 ng/ml FGF, 4 μg/ml insulin, and 0.4% BSA) to allow spheres formation. Typically, sphere formation was evaluated by microscopy after 10-14 days in culture and spheres with >50 cells were scored.
Identification of compounds that inhibit CSC spherogenesis in vitro. One of the hallmarks of cancer stem cells is their ability to self-renew. A reliable method of measuring the self-renewal capacity of cell populations is the ability to be cultured as spheres in the absence of serum or attachment. To compare the ability of compound 401 to other targeted and chemotherapeutic agents, FACS-isolated CD44^high CSCs were grown as spheres for 72 hours before being challenged with a panel of therapeutic agents. […] Tarceva, Sutent, and Gleevec were added at approximately three times their reported therapeutic concentrations.

CC(=O)c1cc2c(o1)C(=O)c1ccccc1C2=O [Compound 401, 2-acetylnaphtho[2,3-b]furan-4,9-dione]
Inhibition of Stat3 DNA-binding activity (in words) [1]: Dose dependent inhibition; also recorded: can inhibit
inhibition at 0.066 µM ([2]; PaCa-2, 401 alone 66 nM): 32%
inhibition at 0.133 µM ([2]; PaCa-2, 401 alone 133 nM): 66%
Cleaved-Caspase 3 staining (apoptosis) [3]: many of the CD133^+ cells become cleaved-Caspase 3 positive; also recorded: apoptotic
Effect on CSC sphere proliferation / formation [4]: effective at preventing sphere proliferation; also recorded: blocks
